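Compound exposure: 48 hours, 5 concentrations, 96-well plates. GI50 is the concentration that inhibits growth by half. TGI: concentration producing complete growth inhibition.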
Tests used:
Test in all cases: inhibition of tumour cell growth, NCI panel, 48 h
UO-31 renal = system: UO-31 renal
SNB-19 CNS = system: SNB-19 CNS
SK-MEL-5 melanoma = system: SK-MEL-5 melanoma
CCRF-CEM leukemia = system: CCRF-CEM leukemia
HCT-15 colon = system: HCT-15 colon
NCI-H23 lung = system: NCI-H23 lung
MDA-MB-231 breast = system: MDA-MB-231 breast
HOP-62 NSCLC = system: HOP-62 NSCLC
A498 renal = system: A498 renal
SNB-75 CNS = system: SNB-75 CNS
HT29 colon = system: HT29 colon
MALME-3M melanoma = system: MALME-3M melanoma
LOX IMVI melanoma = system: LOX IMVI melanoma
786-0 renal = system: 786-0 renal
SW-620 colon = system: SW-620 colon
K-562 leukemia = system: K-562 leukemia
MOLT-4 leukemia = system: MOLT-4 leukemia
MDA-MB-435 = system: MDA-MB-435
OVCAR-5 ovarian = system: OVCAR-5 ovarian
RXF 393 renal = system: RXF 393 renal
EKVX NSCLC = system: EKVX NSCLC
IGROV1 ovarian = system: IGROV1 ovarian
UACC-257 melanoma = system: UACC-257 melanoma
BT-549 breast = system: BT-549 breast
T-47D breast = system: T-47D breast
A549 NSCLC = system: A549 NSCLC
PC-3 prostate = system: PC-3 prostate
HS 578T breast = system: HS 578T breast
COLO 205 colon = system: COLO 205 colon
HCC-2998 colon = system: HCC-2998 colon
SF-268 CNS = system: SF-268 CNS
HOP-92 NSCLC = system: HOP-92 NSCLC
NCI-H460 lung = system: NCI-H460 lung
MCF7 breast = system: MCF7 breast
SF-295 CNS = system: SF-295 CNS
RPMI-8226 leukemia = system: RPMI-8226 leukemia
UACC-62 melanoma = system: UACC-62 melanoma
SK-MEL-28 melanoma = system: SK-MEL-28 melanoma
CAKI-1 renal = system: CAKI-1 renal
ACHN renal = system: ACHN renal
HCT-116 colon = system: HCT-116 colon
KM12 colon = system: KM12 colon
SR leukemia = system: SR leukemia
SN12C renal = system: SN12C renal
OVCAR-8 ovarian = system: OVCAR-8 ovarian
SF-539 CNS = system: SF-539 CNS
SK-OV-3 ovarian = system: SK-OV-3 ovarian
OVCAR-3 ovarian = system: OVCAR-3 ovarian
HL-60(TB) leukemia = system: HL-60(TB) leukemia
SK-MEL-2 melanoma = system: SK-MEL-2 melanoma
M14 melanoma = system: M14 melanoma
TK-10 renal = system: TK-10 renal
NCI-H226 lung = system: NCI-H226 lung
DU-145 prostate = system: DU-145 prostate
NCI-H522 lung = system: NCI-H522 lung

Structure (SMILES): CCOC(=O)c1ccc2[nH]c(O)c(C(=Nc3ccc(N(C)C(=O)CN4CCN(C)CC4)cc3)c3ccccc3)c2c1
- GI50 (UO-31 renal): 323 nM
- TGI (UO-31 renal): 1560 nM
- GI50 (SNB-19 CNS): 743 nM
- TGI (SNB-19 CNS): 2100 nM
- GI50 (SK-MEL-5 melanoma): 426 nM
- TGI (SK-MEL-5 melanoma): 1580 nM
- GI50 (CCRF-CEM leukemia): 416 nM
- TGI (CCRF-CEM leukemia): 8650 nM
- GI50 (HCT-15 colon): 402 nM
- TGI (HCT-15 colon): 1810 nM
- GI50 (NCI-H23 lung): 467 nM
- TGI (NCI-H23 lung): 2230 nM
- GI50 (MDA-MB-231 breast): 222 nM
- TGI (MDA-MB-231 breast): 1540 nM
- GI50 (HOP-62 NSCLC): 428 nM
- TGI (HOP-62 NSCLC): 2180 nM
- GI50 (A498 renal): 162 nM
- TGI (A498 renal): 1060 nM
- GI50 (SNB-75 CNS): 178 nM
- TGI (SNB-75 CNS): 2060 nM
- GI50 (HT29 colon): 185 nM
- TGI (HT29 colon): 8870 nM
- GI50 (MALME-3M melanoma): 454 nM
- TGI (MALME-3M melanoma): 1840 nM
- GI50 (LOX IMVI melanoma): 300 nM
- TGI (LOX IMVI melanoma): 1410 nM
- GI50 (786-0 renal): 213 nM
- TGI (786-0 renal): 1780 nM
- GI50 (SW-620 colon): 346 nM
- TGI (SW-620 colon): 1620 nM
- GI50 (K-562 leukemia): 62.5 nM
- TGI (K-562 leukemia): 2040 nM
- GI50 (MOLT-4 leukemia): 254 nM
- TGI (MOLT-4 leukemia): 2000 nM
- GI50 (MDA-MB-435): 667 nM
- TGI (MDA-MB-435): 2000 nM
- GI50 (OVCAR-5 ovarian): 1350 nM
- TGI (OVCAR-5 ovarian): 3440 nM
- GI50 (RXF 393 renal): 189 nM
- TGI (RXF 393 renal): 698 nM
- GI50 (EKVX NSCLC): 955 nM
- TGI (EKVX NSCLC): 2740 nM
- GI50 (IGROV1 ovarian): 111 nM
- TGI (IGROV1 ovarian): 1240 nM
- GI50 (UACC-257 melanoma): 1380 nM
- TGI (UACC-257 melanoma): 3170 nM
- GI50 (BT-549 breast): 1040 nM
- TGI (BT-549 breast): 2320 nM
- GI50 (T-47D breast): 979 nM
- TGI (T-47D breast): 3310 nM
- GI50 (A549 NSCLC): 416 nM
- TGI (A549 NSCLC): 2730 nM
- GI50 (PC-3 prostate): 467 nM
- TGI (PC-3 prostate): 2370 nM
- GI50 (HS 578T breast): 64.4 nM
- TGI (HS 578T breast): 1010 nM
- GI50 (COLO 205 colon): 275 nM
- TGI (COLO 205 colon): 1470 nM
- GI50 (HCC-2998 colon): 655 nM
- TGI (HCC-2998 colon): 2060 nM
- GI50 (SF-268 CNS): 413 nM
- TGI (SF-268 CNS): 2030 nM
- GI50 (HOP-92 NSCLC): 781 nM
- TGI (HOP-92 NSCLC): 2780 nM
- GI50 (NCI-H460 lung): 810 nM
- TGI (NCI-H460 lung): 2450 nM
- GI50 (MCF7 breast): 418 nM
- TGI (MCF7 breast): 1990 nM
- GI50 (SF-295 CNS): 894 nM
- TGI (SF-295 CNS): 2200 nM
- GI50 (RPMI-8226 leukemia): 598 nM
- TGI (RPMI-8226 leukemia): 3550 nM
- GI50 (UACC-62 melanoma): 1410 nM
- TGI (UACC-62 melanoma): 3090 nM
- GI50 (SK-MEL-28 melanoma): 1110 nM
- TGI (SK-MEL-28 melanoma): 2480 nM
- GI50 (CAKI-1 renal): 103 nM
- TGI (CAKI-1 renal): 1160 nM
- GI50 (ACHN renal): 356 nM
- TGI (ACHN renal): 1530 nM
- GI50 (HCT-116 colon): 172 nM
- TGI (HCT-116 colon): 1260 nM
- GI50 (KM12 colon): 17.2 nM
- TGI (KM12 colon): 1510 nM
- GI50 (SR leukemia): 121 nM
- TGI (SR leukemia): 901 nM
- GI50 (SN12C renal): 144 nM
- TGI (SN12C renal): 1540 nM
- GI50 (OVCAR-8 ovarian): 514 nM
- TGI (OVCAR-8 ovarian): 2890 nM
- GI50 (SF-539 CNS): 247 nM
- TGI (SF-539 CNS): 979 nM
- GI50 (SK-OV-3 ovarian): 206 nM
- TGI (SK-OV-3 ovarian): 1230 nM
- GI50 (OVCAR-3 ovarian): 774 nM
- TGI (OVCAR-3 ovarian): 2300 nM
- GI50 (HL-60(TB) leukemia): 356 nM
- TGI (HL-60(TB) leukemia): 1150 nM
- GI50 (SK-MEL-2 melanoma): 780 nM
- TGI (SK-MEL-2 melanoma): 2570 nM
- GI50 (M14 melanoma): 339 nM
- TGI (M14 melanoma): 1530 nM
- GI50 (TK-10 renal): 540 nM
- TGI (TK-10 renal): 3330 nM
- GI50 (NCI-H226 lung): 596 nM
- TGI (NCI-H226 lung): 2400 nM
- GI50 (DU-145 prostate): 490 nM
- TGI (DU-145 prostate): 2100 nM
- GI50 (NCI-H522 lung): 1120 nM
- TGI (NCI-H522 lung): 3340 nM
